This note sets out measurements from ChEMBL document CHEMBL5108011, “Design, synthesis and antitumor evaluation of ATP dual-mimic 2,4-diarylaminopyrimidine and aminoindazole conjugates as potent anaplastic lymphoma kinase inhibitors” (Eur J Med Chem, 2022).

One may read the IC50 as the concentration that gives 50% inhibition.

One series has as its system KARPAS-299. Kind of series: cells. The settings on record: Homo sapiens, KARPAS-299, 72 h.
The test system of a further series is NCI-H3122. Kind of series: cells. As to conditions: Homo sapiens, NCI-H3122, 72 h.
Another series concerns A549. Kind of series: cells. The settings on record: Homo sapiens, A549, 72 h.
Series [1] concerns NCI-H2228. Nature of the series: cells. As to conditions: Homo sapiens, NCI-H2228, 72 h.
Description: Antiproliferative activity against EML4-ALK-positive human NCI-H2228 cells incubated for 72 hrs and measured by CCK-8 assay
Series [2] has as its target ALK tyrosine kinase receptor (Homo sapiens, UniProt Q9UM73). Kind of series: Inhibition of ALK (unknown origin) incubated for 1 hr and measured by mobility shift assay.
For series [3], the target named is ALK tyrosine kinase receptor (Homo sapiens, UniProt Q9UM73, G1202R). Kind of series: Inhibition of ALK G1202R mutant (unknown origin) incubated for 1 hr and measured by mobility shift assay.
The target of series [4] is ALK tyrosine kinase receptor (Homo sapiens, UniProt Q9UM73, L1196M). Kind of series: Inhibition of ALK L1196M mutant (unknown origin) incubated for 1 hr and measured by mobility shift assay.
Series [5] concerns the target Epidermal growth factor receptor (Homo sapiens, UniProt P00533). Nature of the series: Inhibition of EGFR (unknown origin) incubated for 1 hr and measured by mobility shift assay.
The subject of series [6] is NCI-H2228. Nature of the series: Induction of apoptosis in EML4-ALK-positive human NCI-H2228 cells assessed as apoptotic rate at 100 nM measured after 48 hrs by annexin V-FITC/propidium iodide staining based flow cytometry (reference value: 6.6%). Format: functional. In general terms: In flow cytometry, cells or beads pass a laser one at a time.
In a further series the test system is HCT-116. Kind of series: Antiproliferative activity against human HCT-116 cells incubated for 72 hrs and measured by CCK-8 assay. The settings on record: HCT-116, 72 h. Format: functional, cell-based.
The next series relates to NCI-H1581. Nature of the series: Antiproliferative activity against human NCI-H1581 cells incubated for 72 hrs and measured by CCK-8 assay. Format: functional, cell-based. As to conditions: NCI-H1581, 72 h. (Formazan colour is commonly taken as a measure of viable cells.)
The next series concerns PC-3. Nature of the series: Antiproliferative activity against human PC-3 cells incubated for 72 hrs and measured by CCK-8 assay. The format is functional, cell-based. As to conditions: PC-3, 72 h.
A short description of series [7]: Cytotoxicity against human HELF cells incubated for 72 hrs and measured by CCK-8 assay. The format is toxicity, cell-based.
For a further series, the system named is MCF7. Kind of series: Antiproliferative activity against human MCF7 cells incubated for 72 hrs and measured by CCK-8 assay. The settings on record: MCF7, 72 h. The format is functional, cell-based.

A value given as a limit tells only on which side of the number the result lay.

Chain of ALK tyrosine kinase receptor (Homo sapiens, UniProt Q9UM73, L1196M) (Q9UM73 19-1620 L1196M limits assumed): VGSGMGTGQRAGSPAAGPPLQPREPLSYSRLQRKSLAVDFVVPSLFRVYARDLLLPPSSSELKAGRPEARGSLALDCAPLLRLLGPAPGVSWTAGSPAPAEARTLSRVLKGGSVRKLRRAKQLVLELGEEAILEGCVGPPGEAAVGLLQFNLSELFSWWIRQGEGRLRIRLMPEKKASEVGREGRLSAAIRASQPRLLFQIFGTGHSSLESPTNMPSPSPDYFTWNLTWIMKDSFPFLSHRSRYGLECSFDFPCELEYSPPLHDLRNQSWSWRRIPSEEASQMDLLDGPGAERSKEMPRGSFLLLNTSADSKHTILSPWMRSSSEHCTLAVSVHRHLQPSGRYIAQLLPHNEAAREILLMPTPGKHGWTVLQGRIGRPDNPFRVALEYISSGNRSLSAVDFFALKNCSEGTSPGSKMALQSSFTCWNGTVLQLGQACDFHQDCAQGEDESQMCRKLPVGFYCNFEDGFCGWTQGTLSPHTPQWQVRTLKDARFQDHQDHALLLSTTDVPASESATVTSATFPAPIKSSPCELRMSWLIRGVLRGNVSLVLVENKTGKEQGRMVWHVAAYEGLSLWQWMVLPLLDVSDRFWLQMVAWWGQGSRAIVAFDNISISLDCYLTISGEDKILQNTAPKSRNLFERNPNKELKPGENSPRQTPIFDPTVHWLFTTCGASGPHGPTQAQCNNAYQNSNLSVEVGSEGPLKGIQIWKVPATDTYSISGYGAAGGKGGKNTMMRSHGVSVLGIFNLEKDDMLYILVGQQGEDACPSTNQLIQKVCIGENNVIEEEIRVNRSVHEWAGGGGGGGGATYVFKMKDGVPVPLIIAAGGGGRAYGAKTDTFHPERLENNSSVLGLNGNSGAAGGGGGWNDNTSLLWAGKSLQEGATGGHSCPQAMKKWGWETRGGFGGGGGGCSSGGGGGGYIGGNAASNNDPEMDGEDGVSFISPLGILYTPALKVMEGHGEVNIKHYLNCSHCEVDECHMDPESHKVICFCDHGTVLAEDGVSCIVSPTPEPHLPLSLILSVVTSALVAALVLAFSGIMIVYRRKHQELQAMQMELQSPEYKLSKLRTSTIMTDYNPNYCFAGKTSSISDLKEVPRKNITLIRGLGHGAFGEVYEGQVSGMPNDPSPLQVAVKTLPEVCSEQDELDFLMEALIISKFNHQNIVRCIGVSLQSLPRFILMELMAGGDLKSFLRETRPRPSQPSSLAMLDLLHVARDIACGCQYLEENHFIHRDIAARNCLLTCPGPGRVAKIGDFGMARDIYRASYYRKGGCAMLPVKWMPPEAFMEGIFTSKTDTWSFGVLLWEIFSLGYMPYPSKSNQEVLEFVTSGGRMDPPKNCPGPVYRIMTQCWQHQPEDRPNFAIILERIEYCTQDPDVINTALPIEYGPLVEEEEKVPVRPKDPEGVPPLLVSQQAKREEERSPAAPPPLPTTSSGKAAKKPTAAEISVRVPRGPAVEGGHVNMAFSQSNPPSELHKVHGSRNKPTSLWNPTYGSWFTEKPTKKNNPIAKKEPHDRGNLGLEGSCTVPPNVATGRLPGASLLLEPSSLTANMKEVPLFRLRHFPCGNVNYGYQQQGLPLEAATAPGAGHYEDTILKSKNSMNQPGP
Chain of ALK tyrosine kinase receptor (Homo sapiens, UniProt Q9UM73) (Q9UM73 whole entry): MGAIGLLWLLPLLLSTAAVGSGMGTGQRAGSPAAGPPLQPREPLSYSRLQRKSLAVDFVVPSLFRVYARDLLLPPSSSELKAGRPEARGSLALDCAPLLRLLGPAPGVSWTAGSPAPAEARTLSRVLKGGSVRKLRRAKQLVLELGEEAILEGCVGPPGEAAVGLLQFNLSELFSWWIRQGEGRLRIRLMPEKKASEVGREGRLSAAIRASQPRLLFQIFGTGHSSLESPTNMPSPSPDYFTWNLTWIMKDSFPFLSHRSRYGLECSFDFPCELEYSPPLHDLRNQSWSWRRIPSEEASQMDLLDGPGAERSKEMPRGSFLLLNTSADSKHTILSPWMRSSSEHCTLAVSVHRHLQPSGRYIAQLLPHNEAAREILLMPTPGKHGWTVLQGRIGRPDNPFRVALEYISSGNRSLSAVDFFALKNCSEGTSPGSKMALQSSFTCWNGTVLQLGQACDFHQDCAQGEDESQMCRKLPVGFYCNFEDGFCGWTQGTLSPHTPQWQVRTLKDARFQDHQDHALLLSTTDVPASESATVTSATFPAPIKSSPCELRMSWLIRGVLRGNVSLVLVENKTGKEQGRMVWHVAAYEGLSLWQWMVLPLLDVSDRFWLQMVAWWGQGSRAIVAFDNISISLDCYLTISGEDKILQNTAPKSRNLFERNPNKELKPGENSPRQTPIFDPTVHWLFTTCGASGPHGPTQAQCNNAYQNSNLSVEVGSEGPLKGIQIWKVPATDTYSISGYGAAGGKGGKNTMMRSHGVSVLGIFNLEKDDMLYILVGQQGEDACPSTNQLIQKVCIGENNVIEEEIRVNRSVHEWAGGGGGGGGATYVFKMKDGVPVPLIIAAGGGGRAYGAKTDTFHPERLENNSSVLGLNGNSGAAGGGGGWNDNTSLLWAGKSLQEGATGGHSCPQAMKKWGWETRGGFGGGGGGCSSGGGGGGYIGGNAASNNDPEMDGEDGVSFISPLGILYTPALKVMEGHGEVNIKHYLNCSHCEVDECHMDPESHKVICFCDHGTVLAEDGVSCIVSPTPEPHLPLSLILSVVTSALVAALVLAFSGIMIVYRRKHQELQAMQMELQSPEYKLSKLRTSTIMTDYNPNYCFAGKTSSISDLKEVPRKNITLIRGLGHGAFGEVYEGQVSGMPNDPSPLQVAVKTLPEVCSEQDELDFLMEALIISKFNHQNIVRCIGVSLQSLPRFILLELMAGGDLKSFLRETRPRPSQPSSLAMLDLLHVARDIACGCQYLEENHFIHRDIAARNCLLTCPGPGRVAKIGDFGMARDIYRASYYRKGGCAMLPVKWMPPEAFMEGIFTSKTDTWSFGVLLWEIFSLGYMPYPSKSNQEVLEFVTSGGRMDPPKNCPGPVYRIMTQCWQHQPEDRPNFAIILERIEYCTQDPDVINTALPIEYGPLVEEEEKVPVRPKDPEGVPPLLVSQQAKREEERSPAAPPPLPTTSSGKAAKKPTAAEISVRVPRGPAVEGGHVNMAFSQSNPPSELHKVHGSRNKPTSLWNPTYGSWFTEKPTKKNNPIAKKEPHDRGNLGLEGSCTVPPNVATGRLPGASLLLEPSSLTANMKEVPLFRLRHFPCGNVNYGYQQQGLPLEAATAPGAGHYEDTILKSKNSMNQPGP
Chain of ALK tyrosine kinase receptor (Homo sapiens, UniProt Q9UM73, G1202R) (Q9UM73 19-1620 G1202R limits assumed): as the sequence (Q9UM73 19-1620 L1196M limits assumed) above, with M1178L, G1184R counted along it
Chain of Epidermal growth factor receptor (P00533 whole entry): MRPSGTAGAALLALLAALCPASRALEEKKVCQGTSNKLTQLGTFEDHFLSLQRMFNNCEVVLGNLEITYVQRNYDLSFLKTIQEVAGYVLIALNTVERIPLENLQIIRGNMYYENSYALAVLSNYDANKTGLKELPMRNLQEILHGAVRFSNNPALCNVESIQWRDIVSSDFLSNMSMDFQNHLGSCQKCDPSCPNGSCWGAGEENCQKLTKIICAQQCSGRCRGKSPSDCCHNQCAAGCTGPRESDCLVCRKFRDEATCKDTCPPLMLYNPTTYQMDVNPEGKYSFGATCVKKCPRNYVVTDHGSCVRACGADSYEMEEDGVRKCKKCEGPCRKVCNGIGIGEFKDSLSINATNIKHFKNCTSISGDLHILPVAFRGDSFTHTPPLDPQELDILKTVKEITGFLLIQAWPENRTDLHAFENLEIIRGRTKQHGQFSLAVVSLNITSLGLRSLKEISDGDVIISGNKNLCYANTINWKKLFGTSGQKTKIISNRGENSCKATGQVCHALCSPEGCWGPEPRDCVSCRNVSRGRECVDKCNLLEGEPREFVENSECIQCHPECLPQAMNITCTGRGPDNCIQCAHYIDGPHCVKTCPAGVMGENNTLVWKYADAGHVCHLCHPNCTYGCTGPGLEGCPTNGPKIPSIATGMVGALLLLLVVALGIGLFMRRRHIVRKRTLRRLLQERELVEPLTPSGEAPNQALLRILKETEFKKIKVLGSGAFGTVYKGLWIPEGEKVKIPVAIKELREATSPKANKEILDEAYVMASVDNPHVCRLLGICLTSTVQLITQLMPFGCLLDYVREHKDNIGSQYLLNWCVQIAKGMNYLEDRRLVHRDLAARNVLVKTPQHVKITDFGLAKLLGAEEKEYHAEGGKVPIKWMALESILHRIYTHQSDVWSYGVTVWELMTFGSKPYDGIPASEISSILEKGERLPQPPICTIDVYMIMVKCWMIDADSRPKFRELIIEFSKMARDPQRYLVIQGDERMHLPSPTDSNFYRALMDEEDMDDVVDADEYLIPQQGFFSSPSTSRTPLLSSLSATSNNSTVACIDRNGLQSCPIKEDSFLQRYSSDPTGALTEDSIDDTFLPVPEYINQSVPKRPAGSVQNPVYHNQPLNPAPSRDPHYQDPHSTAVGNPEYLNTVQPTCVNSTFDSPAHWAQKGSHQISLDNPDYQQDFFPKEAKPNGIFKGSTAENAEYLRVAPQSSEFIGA
Description for A549: Antiproliferative activity against EGFR-positive human A549 cells incubated for 72 hrs and measured by CCK-8 assay
Description for KARPAS-299: Antiproliferative activity against NPM-ALK-positive human KARPAS-299 cells incubated for 72 hrs and measured by CCK-8 assay
Description for NCI-H3122: Antiproliferative activity against EML4-ALK-positive human NCI-H3122 cells incubated for 72 hrs and measured by CCK-8 assay

For `CNC(=O)c1ccccc1Nc1nc(Nc2ccc3c(NC(=O)CN4CCCCC4)n[nH]c3c2)ncc1Cl`, the IC50 in the series with KARPAS-299 is 31 nM; in the series with NCI-H3122, 107 nM; in the series on A549, 7210 nM; in the series with NCI-H2228 [1], 204 nM.
The like results for `CC(C)S(=O)(=O)c1ccccc1Nc1nc(Nc2ccc3c(NC(=O)CN4CCSCC4)n[nH]c3c2)ncc1Cl` were, in that order, 36 nM, 124 nM, 1180 nM and 126 nM.
On the same counts, the results for `CNC(=O)c1ccccc1Nc1nc(Nc2ccc3c(NC(=O)CN4CCC(=O)CC4)n[nH]c3c2)ncc1Cl` are 63 nM, 187 nM, 2030 nM and 569 nM.
On the same counts, the results for `C=CC(=O)Nc1ccccc1Nc1nc(Nc2ccc3c(NC(=O)CN(C)C)n[nH]c3c2)ncc1Cl` are 899 nM, 3490 nM, 4490 nM and 1820 nM.
Take `CC(C)S(=O)(=O)c1ccccc1Nc1nc(Nc2ccc3c(NC(=O)CN(C)C)n[nH]c3c2)ncc1Cl`: the IC50 in series [2] came to 2.5 nM; in series [3], 3.8 nM; in series [4], 4.8 nM.
Regarding `CC(C)S(=O)(=O)c1ccccc1Nc1nc(Nc2ccc3c(NC(=O)CN4CCN(CCO)CC4)n[nH]c3c2)ncc1Cl`, the IC50 in the series with KARPAS-299 turned out to be 46 nM; with NCI-H3122, 157 nM; in the series with A549, 7260 nM; in the series with NCI-H2228 [1], 250 nM.
Take `CCN(CC)CC(=O)Nc1n[nH]c2cc(Nc3ncc(Cl)c(Nc4ccccc4S(=O)(=O)C(C)C)n3)ccc12`: the IC50 was 21 nM in the series with KARPAS-299; 57 nM with NCI-H3122; 2560 nM in the series on A549; greater than 1000 nM in series [5]; 3.3 nM in series [2]; 1.8 nM in series [3]. In addition, the IC50 in series [4] stood at 3.8 nM; with NCI-H2228 [1], 45 nM.
With `CN(C)CC(=O)Nc1n[nH]c2cc(Nc3ncc(Cl)c(Nc4ccccc4NC(=O)C4CC4)n3)ccc12`, the IC50 is 558 nM in the series on KARPAS-299, 836 nM in the series with NCI-H3122, 1320 nM in the series with A549 and 823 nM in the series on NCI-H2228 [1].
The like results for `CNC(=O)c1ccccc1Nc1nc(Nc2ccc3c(NC(=O)CN4CCC(O)CC4)n[nH]c3c2)ncc1Cl` were, in that order, 59 nM, 151 nM, 2000 nM and 362 nM.
On the same counts, the results for `CC1CCN(CC(=O)Nc2n[nH]c3cc(Nc4ncc(Cl)c(Nc5ccccc5S(=O)(=O)C(C)C)n4)ccc23)CC1` are 16 nM, 65 nM, 1470 nM and 104 nM.
On the same counts, the results for `CC(C)S(=O)(=O)c1ccccc1Nc1nc(Nc2ccc3c(NC(=O)CN4CCN(C)CC4)n[nH]c3c2)ncc1Cl` are 34 nM, 89 nM, 3580 nM and 520 nM.
Turning to `CC(C)S(=O)(=O)c1ccccc1Nc1nc(Nc2ccc3c(NC(=O)CN4CCOCC4)n[nH]c3c2)ncc1Cl`, the IC50 was 22 nM with KARPAS-299, 73 nM in the series on NCI-H3122, 2390 nM in the series with A549 and 124 nM with NCI-H2228 [1].
On the same counts, the results for `CNC(=O)c1ccccc1Nc1nc(Nc2ccc3c(NC(=O)CN4CCOCC4)n[nH]c3c2)ncc1Cl` are 23 nM, 97 nM, 2230 nM and 112 nM.
On the same counts, the results for `CN(C)CC(=O)Nc1n[nH]c2cc(Nc3ncc(Cl)c(Nc4ccccc4NC(=O)C(C)(C)C)n3)ccc12` are 718 nM, 1570 nM, 1690 nM and 912 nM.
`CNC(=O)c1ccccc1Nc1nc(Nc2ccc3c(NC(=O)CN4CCSCC4)n[nH]c3c2)ncc1Cl`: the IC50 is 76 nM in the series on KARPAS-299, 137 nM in the series on NCI-H3122, 1220 nM in the series with A549 and 322 nM in the series on NCI-H2228 [1].
The like results for `CNC(=O)c1ccccc1Nc1nc(Nc2ccc3c(NC(=O)CN4CCC(C)CC4)n[nH]c3c2)ncc1Cl` were, in that order, 29 nM, 71 nM, 4810 nM and 113 nM.
On the same counts, the results for `CCN1CCN(CC(=O)Nc2n[nH]c3cc(Nc4ncc(Cl)c(Nc5ccccc5S(=O)(=O)C(C)C)n4)ccc23)CC1` are 26 nM, 84 nM, 3970 nM and 140 nM.
The like results for `CC(C)S(=O)(=O)c1ccccc1Nc1nc(Nc2ccc3c(NC(=O)CN4CCC(O)CC4)n[nH]c3c2)ncc1Cl` were, in that order, 41 nM, 129 nM, 1840 nM and 170 nM.
For `CNC(=O)c1ccccc1Nc1nc(Nc2ccc3c(NC(=O)CN4CCCC4)n[nH]c3c2)ncc1Cl`, the results for the IC50 in series [2], in [3] and in [4] were 3.6 nM, 2.1 nM and 4.4 nM, respectively.
For the compound `C/C=C/C(=O)Nc1ccccc1Nc1nc(Nc2ccc3c(NC(=O)CN(C)C)n[nH]c3c2)ncc1Cl`, the IC50 in the series on KARPAS-299 worked out at 1250 nM; in the series with NCI-H3122, 3690 nM; with A549, 5910 nM; with NCI-H2228 [1] it was 2980 nM.
On the same counts, the results for `CCN1CCN(CC(=O)Nc2n[nH]c3cc(Nc4ncc(Cl)c(Nc5ccccc5C(=O)NC)n4)ccc23)CC1` are 21 nM, 162 nM, 4470 nM and 242 nM.
The like results for `CCN(CC)CC(=O)Nc1n[nH]c2cc(Nc3ncc(Cl)c(Nc4ccccc4C(=O)NC)n3)ccc12` were, in that order, 17 nM, 85 nM, 2350 nM and 62 nM.
The like results for `CC(=O)Nc1ccccc1Nc1nc(Nc2ccc3c(NC(=O)CN(C)C)n[nH]c3c2)ncc1Cl` were, in that order, 359 nM, 74 nM, 1670 nM and 770 nM.
Turning to `Cc1cc(Nc2ncc(Cl)c(Nc3ccccc3S(=O)(=O)C(C)C)n2)c(OC(C)C)cc1C1CCNCC1` [CERITINIB], the Activity in the series on NCI-H2228 [6] worked out at 12.32%. In addition, the IC50 came to 24 nM in the series with KARPAS-299; 1930 nM in the series with HCT-116; 2310 nM in the series with NCI-H1581; 1020 nM with PC-3; 43 nM in the series with NCI-H3122; 1870 nM with MCF7. The IC50 in the series on A549 was 2770 nM; in the series on NCI-H2228 [1], 66 nM. Also, in series [7], the IC50 at 72 h was greater than 20000 nM.
For the compound `CN(C)CC(=O)Nc1n[nH]c2cc(Nc3ncc(Cl)c(Nc4ccccc4NS(C)(=O)=O)n3)ccc12`, the IC50 stood at 132 nM in the series on KARPAS-299, 245 nM with NCI-H3122, 3440 nM in the series with A549 and 339 nM with NCI-H2228 [1].
For `CNC(=O)c1ccccc1Nc1nc(Nc2ccc3c(NC(=O)CN(C)C)n[nH]c3c2)ncc1Cl`, the IC50 was 12 nM in the series with KARPAS-299; 21 nM in the series on NCI-H3122; 2190 nM in the series with A549; greater than 1000 nM in series [5]; 3.7 nM in series [2]; 2.5 nM in [3]. Moreover, the IC50 came to 6.6 nM in series [4] and 51 nM in the series on NCI-H2228 [1].
With `CC(C)S(=O)(=O)c1ccccc1Nc1nc(Nc2ccc3c(NC(=O)CN4CCCCC4)n[nH]c3c2)ncc1Cl`, the IC50 with KARPAS-299 was 19 nM; in the series on NCI-H3122, 83 nM; in the series with A549, 3260 nM; in the series with NCI-H2228 [1], 133 nM.
The like results for `CN(C)CC(=O)Nc1n[nH]c2cc(Nc3ncc(Cl)c(Nc4ccccc4NS(=O)(=O)C4CC4)n3)ccc12` were, in that order, 169 nM, 1530 nM, 1850 nM and 781 nM.
On the same counts, the results for `CNC(=O)c1ccccc1Nc1nc(Nc2ccc3c(NC(=O)CN4CCN(CCO)CC4)n[nH]c3c2)ncc1Cl` are 53 nM, 175 nM, 13600 nM and 412 nM.
On the same counts, the results for `CN(C)CC(=O)Nc1n[nH]c2cc(Nc3ncc(Cl)c(Nc4ccccc4NC(=O)C(Cl)(Cl)Cl)n3)ccc12` are 1270 nM, 2960 nM, 5780 nM and 1450 nM.
